Source: patent publication US8063220B2, “Sulfonyl-quinoline derivatives” (Richter Gedeon Nyrt., priority 2007, dated 2011)

Columns and labels:
[1] = target: T1, rat mGluR5 (Rattus norvegicus, UniProt P31424); assay: MGluR5 receptor binding test ([3H]-M-MPEP displacement, rat cerebro-cortical membrane preparation); details: rat mGluR5, [3H]-M-MPEP 2 nM; read-out: mGlu5 Ki
T1 construct: Rat cerebro-cortical membrane preparation was used; from tissue; host or cells: rat cerebral cortex (membrane preparation)
Description: Rat cerebro-cortical membrane preparation was used to determine the binding characteristics of reference compounds and novel compounds to the rat mGluR5. The A18 cell line expressing hmGluR5a (purchased from Euroscreen) was used to determine binding characteristics of the chemical compounds to the human mGluR5a receptor. [3H]-M-MPEP (2 nM) was used as radioligand. The nonspecific binding was determined in the presence of 10 μM M-MPEP.

[2] = target: T2, rat mGluR1 (Rattus norvegicus, UniProt P23385); assay: MGluR1 receptor binding test ([3H]R214127 displacement, rat cerebellar membrane preparation); details: rat mGluR1, [3H]R214127 3 nM; read-out: mGlu1 Ki
T2 construct: rat cerebellar membrane preparation was used; from tissue; host or cells: rat cerebellum (membrane preparation)
Description: MGluR1 receptor binding tests were performed according to modified method of Lavreysen et al. (Mol. Pharm., 2003, 63, 1082). Based on the high homology between the human and rat mGluR1 receptors, rat cerebellar membrane preparation was used to determine the binding characteristics of reference compounds and novel compounds to the rat mGluR1. [3H]R214127 (3 nM) was used as radioligand and the nonspecific binding was determined in the presence of 1 μM of R214127.
IC-50 values were determined from displacement curves by nonlinear regression analysis and were converted to Ki values using the equation method of Cheng and Prusoff (Biochem. Pharmacol., 1973, 22, 3099).

T1 sequence (P31424 21-1203): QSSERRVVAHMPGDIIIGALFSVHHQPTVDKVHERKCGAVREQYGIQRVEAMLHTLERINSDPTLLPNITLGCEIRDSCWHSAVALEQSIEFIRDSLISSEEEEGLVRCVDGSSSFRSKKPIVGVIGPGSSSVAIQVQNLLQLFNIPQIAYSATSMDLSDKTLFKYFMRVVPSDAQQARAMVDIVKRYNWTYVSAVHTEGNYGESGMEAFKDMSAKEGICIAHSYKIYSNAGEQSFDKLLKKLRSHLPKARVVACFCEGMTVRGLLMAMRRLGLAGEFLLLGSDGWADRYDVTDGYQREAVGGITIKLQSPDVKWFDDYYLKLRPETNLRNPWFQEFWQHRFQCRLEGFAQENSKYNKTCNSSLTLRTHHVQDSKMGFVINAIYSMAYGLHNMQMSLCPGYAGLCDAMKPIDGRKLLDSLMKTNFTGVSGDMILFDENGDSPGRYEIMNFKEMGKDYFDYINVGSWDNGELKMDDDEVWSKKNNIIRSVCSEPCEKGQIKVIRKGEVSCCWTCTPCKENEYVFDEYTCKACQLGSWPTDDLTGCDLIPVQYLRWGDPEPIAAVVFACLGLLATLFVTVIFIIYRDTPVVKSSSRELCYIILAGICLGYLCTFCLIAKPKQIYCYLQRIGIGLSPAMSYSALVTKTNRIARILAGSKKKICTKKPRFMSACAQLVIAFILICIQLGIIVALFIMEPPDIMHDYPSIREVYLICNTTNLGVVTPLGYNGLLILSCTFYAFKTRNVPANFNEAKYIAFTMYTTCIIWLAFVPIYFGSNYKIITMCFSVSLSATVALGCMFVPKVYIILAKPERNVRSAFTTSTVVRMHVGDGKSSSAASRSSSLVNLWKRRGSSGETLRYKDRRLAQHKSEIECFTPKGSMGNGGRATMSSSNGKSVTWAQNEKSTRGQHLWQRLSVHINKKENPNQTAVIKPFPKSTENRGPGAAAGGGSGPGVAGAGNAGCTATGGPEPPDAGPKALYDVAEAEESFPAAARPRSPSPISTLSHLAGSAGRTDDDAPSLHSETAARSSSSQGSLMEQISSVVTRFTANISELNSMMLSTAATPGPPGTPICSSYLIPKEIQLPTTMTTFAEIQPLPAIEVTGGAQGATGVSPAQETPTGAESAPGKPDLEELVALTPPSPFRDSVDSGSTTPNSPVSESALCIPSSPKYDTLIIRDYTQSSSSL
T2 sequence (P23385 19-1199): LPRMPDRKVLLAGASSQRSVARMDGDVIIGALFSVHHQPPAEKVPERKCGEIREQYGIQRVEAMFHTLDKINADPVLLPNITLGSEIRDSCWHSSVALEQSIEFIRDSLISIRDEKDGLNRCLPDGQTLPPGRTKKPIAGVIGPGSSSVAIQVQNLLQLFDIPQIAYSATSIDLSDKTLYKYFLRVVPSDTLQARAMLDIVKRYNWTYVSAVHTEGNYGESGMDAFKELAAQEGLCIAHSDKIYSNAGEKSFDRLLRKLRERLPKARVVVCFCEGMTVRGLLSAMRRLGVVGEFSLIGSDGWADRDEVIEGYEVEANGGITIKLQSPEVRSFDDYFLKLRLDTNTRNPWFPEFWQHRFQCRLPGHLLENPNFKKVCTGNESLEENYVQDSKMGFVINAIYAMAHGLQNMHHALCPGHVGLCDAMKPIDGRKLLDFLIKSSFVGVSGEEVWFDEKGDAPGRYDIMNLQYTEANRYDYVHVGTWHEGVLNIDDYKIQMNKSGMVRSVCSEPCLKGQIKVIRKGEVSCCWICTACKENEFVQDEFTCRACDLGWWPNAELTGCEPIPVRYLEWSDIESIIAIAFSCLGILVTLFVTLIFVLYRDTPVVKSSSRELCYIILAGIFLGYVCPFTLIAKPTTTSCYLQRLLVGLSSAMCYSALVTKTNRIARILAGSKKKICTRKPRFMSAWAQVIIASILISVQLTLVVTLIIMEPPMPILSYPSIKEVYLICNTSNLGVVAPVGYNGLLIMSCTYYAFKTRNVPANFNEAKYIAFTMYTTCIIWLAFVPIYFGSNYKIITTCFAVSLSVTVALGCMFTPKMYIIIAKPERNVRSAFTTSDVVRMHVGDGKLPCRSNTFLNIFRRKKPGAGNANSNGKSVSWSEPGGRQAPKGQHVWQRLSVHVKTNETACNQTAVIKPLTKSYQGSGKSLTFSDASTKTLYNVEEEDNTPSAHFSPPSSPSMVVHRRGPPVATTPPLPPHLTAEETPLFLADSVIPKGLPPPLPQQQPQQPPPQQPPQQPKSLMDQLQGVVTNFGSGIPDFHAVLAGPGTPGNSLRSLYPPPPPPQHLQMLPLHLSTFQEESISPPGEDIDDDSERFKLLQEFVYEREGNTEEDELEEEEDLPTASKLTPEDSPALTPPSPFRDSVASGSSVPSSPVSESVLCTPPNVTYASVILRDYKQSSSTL

Ki [1] [µM]	Ki [2] [µM]	SMILES
< 0.2	> 0.5	COc1ccc(S(=O)(=O)c2cnc3cc(F)ccc3c2-c2cccc(F)c2)cc1Cl [Compound 48]
> 0.5	> 0.5	O=S(=O)(c1ccc(F)cc1)c1cnc2ccc(F)cc2c1-c1ccc(F)cc1 [Compound 28]
> 0.5	> 0.5	O=S(=O)(c1ccc(Cl)cc1)c1cnc2c(Cl)ccc(Cl)c2c1-c1cccc(Cl)c1 [Compound 185]
0.2 to 0.5	> 0.5	O=S(=O)(c1ccc(F)cc1)c1cnc2ccc(F)cc2c1-c1cccc(F)c1 [Compound 26]
< 0.2	> 0.5	N#Cc1cccc(S(=O)(=O)c2cnc3c(F)cccc3c2-c2ccc(F)cc2)c1 [Compound 222]
< 0.2	> 0.5	O=S(=O)(c1ccc(Cl)c(F)c1)c1cnc2cc(F)c(Cl)cc2c1-c1ccc(F)cc1 [Compound 190]
< 0.2	> 0.5	Cc1ccc(S(=O)(=O)c2cnc3ccc(F)cc3c2-c2cccc(Cl)c2)cc1F [Compound 127]
< 0.2	> 0.5	Cc1ccc(S(=O)(=O)c2cnc3cc(F)ccc3c2-c2ccc(F)cc2)cc1F [Compound 86]
< 0.2	> 0.5	COc1cccc(S(=O)(=O)c2cnc3cc(F)ccc3c2-c2cccc(Cl)c2)c1 [Compound 43]
< 0.2	0.2 to 0.5	O=S(=O)(c1ccc(Cl)cc1)c1cnc2cc(Cl)ccc2c1-c1ccc(F)cc1 [Compound 4, 7-chloro-3-(4-chloro-benzenesulfonyl)-4-(4-fluoro-phenyl)-quinoline]
< 0.2	> 0.5	O=S(=O)(c1cc(Cl)cc(Cl)c1)c1cnc2c(F)cccc2c1-c1cccc(F)c1 [Compound 106]
0.2 to 0.5	> 0.5	O=S(=O)(c1cc(F)cc(F)c1)c1cnc2cc(F)ccc2c1-c1cccc(Cl)c1 [Compound 87]
< 0.2	> 0.5	Cc1ccc(S(=O)(=O)c2cnc3ccc(F)cc3c2-c2cccc(Cl)c2)cc1Cl [Compound 138]
> 0.5	> 0.5	O=S(=O)(c1ccc(F)cc1)c1cnc2ccc(Cl)cc2c1-c1ccc(Cl)cc1 [Compound 2]
0.2 to 0.5	> 0.5	COc1ccc(-c2c(S(=O)(=O)c3ccc(F)cc3)cnc3cc(F)ccc23)cc1 [Compound 10]
> 0.5	> 0.5	COc1ccc(S(=O)(=O)c2cnc3cc(F)ccc3c2-c2cccc(Cl)c2)cc1OC [Compound 162]
< 0.2	> 0.5	Cc1ccc(S(=O)(=O)c2cnc3cc(F)ccc3c2-c2cccc(F)c2)cc1Cl [Compound 94]
0.2 to 0.5	> 0.5	COc1ccc(S(=O)(=O)c2cnc3cc(F)ccc3c2-c2cccc(F)c2)cc1 [Compound 12]
< 0.2	> 0.5	N#Cc1cc(C#N)cc(S(=O)(=O)c2cnc3cc(F)ccc3c2-c2ccc(F)c(F)c2)c1 [Compound 256]
< 0.2	0.2 to 0.5	O=S(=O)(c1cc(Cl)cc(Cl)c1)c1cnc2cc(F)ccc2c1-c1cccc(F)c1 [Compound 80]
< 0.2	> 0.5	O=S(=O)(c1ccc(F)c(F)c1)c1cnc2ccccc2c1-c1cccc(F)c1 [Compound 240]
< 0.2	> 0.5	COc1ccc(-c2c(S(=O)(=O)c3ccc(C)c(C)c3)cnc3ccc(F)cc23)cc1 [Compound 147]
< 0.2	0.2 to 0.5	O=S(=O)(c1cc(Cl)cc(Cl)c1)c1cnc2ccc(F)cc2c1-c1cccc(F)c1 [Compound 124]
< 0.2	> 0.5	COc1ccc(-c2c(S(=O)(=O)c3cc(Cl)cc(Cl)c3)cnc3c(F)cccc23)cc1 [Compound 107]
< 0.2	> 0.5	COc1ccc(-c2c(S(=O)(=O)c3ccc(C)c(F)c3)cnc3ccc(F)cc23)cc1 [Compound 129]
< 0.2	> 0.5	COc1cccc(S(=O)(=O)c2cnc3ccc(F)cc3c2-c2ccc(F)cc2)c1 [Compound 73]
< 0.2	< 0.2	O=S(=O)(c1ccc(F)cc1)c1cnc2c(F)cccc2c1-c1cccc(Cl)c1 [Compound 20]

The remaining lines, values behind:

SMILES	Ki [1] [µM]	Ki [2] [µM]
COc1cccc(-c2c(S(=O)(=O)c3cc(F)cc(F)c3)cnc3c(F)cccc23)c1 [Compound 118]	< 0.2	> 0.5
N#Cc1cccc(S(=O)(=O)c2cnc3c(F)cccc3c2-c2ccc(Cl)cc2)c1 [Compound 225]	< 0.2	> 0.5
O=S(=O)(c1ccc(Cl)c(F)c1)c1cnc2cc(F)c(Cl)cc2c1-c1cccc(F)c1 [Compound 188]	0.2 to 0.5	> 0.5
N#Cc1cc(S(=O)(=O)c2cnc3cc(F)ccc3c2-c2ccc(F)cc2)ccc1F [Compound 275]	< 0.2	> 0.5
Cc1ccc(S(=O)(=O)c2cnc3cc(F)ccc3c2-c2ccc(F)cc2)cc1C [Compound 46]	< 0.2	> 0.5
O=S(=O)(c1ccc(F)c(Cl)c1)c1cnc2cc(F)ccc2c1-c1ccc(Cl)cc1 [Compound 102]	< 0.2	0.2 to 0.5
Cc1ccc(S(=O)(=O)c2cnc3cc(F)ccc3c2-c2cccc(Cl)c2)cc1C [Compound 17, 4-(3-chloro-phenyl)-3-(3,4-dimethyl-benzenesulfonyl)-7-fluoro-quinoline]	< 0.2	> 0.5
COc1cccc(-c2c(S(=O)(=O)c3cccc(F)c3)cnc3c(F)cccc23)c1 [Compound 62]	< 0.2	> 0.5
COc1cccc(-c2c(S(=O)(=O)c3cc(Cl)cc(Cl)c3)cnc3ccc(F)cc23)c1 [Compound 126]	< 0.2	> 0.5
COc1ccc(S(=O)(=O)c2cnc3ccc(F)cc3c2-c2cccc(F)c2)cc1 [Compound 30]	0.2 to 0.5	> 0.5
COc1ccc(-c2c(S(=O)(=O)c3cccc(C#N)c3)cnc3ccc(F)cc23)cc1 [Compound 137]	< 0.2	> 0.5
O=S(=O)(c1ccc(F)c(Cl)c1)c1cnc2ccc(F)cc2c1-c1ccc(F)cc1 [Compound 155]	< 0.2	0.2 to 0.5
N#Cc1ccc2c(-c3ccccc3F)c(S(=O)(=O)c3ccc(F)c(Cl)c3)cnc2c1 [Compound 195]	< 0.2	> 0.5
O=S(=O)(c1ccc(F)c(F)c1)c1cnc2c(F)cccc2c1-c1ccccc1F [Compound 243]	< 0.2	> 0.5
O=S(=O)(c1cc(Cl)cc(Cl)c1)c1cnc2cc(F)ccc2c1-c1cccc(Cl)c1 [Compound 156]	< 0.2	0.2 to 0.5
COc1cccc(-c2c(S(=O)(=O)c3ccc(F)c(Cl)c3)cnc3ccc(F)cc23)c1 [Compound 154]	< 0.2	> 0.5

SMILES	Ki [1] [µM]	Ki [2] [µM]
Cc1ccc(S(=O)(=O)c2cnc3cc(F)ccc3c2-c2cccc(F)c2)cc1F [Compound 85]	< 0.2	> 0.5
O=S(=O)(c1ccc(F)c(F)c1)c1cnc2c(F)cccc2c1-c1ccc(F)cc1 [Compound 123]	< 0.2	< 0.2
COc1ccc(-c2c(S(=O)(=O)c3ccc(C)c(F)c3)cnc3c(F)cccc23)cc1 [Compound 112]	< 0.2	> 0.5
O=S(=O)(c1cc(F)cc(F)c1)c1cnc2cc(F)ccc2c1-c1ccc(Cl)cc1 [Compound 35, 4-(4-chloro-phenyl)-3-(3,5-difluoro-benzenesulfonyl)-7-fluoro-quinoline]	< 0.2	> 0.5
O=S(=O)(c1ccc(F)cc1)c1cnc2cc(Cl)ccc2c1-c1cccc(F)c1 [Compound 167]	< 0.2	> 0.5
O=S(=O)(c1ccc(F)c(Cl)c1)c1cnc2cc(F)ccc2c1-c1cccc(Cl)c1 [Compound 258]	< 0.2	0.2 to 0.5
O=S(=O)(c1ccc(F)c(Cl)c1)c1cnc2c(F)cccc2c1-c1cccc(Cl)c1 [Compound 229]	< 0.2	0.2 to 0.5
COc1ccc(S(=O)(=O)c2cnc3c(F)cccc3c2-c2cccc(OC)c2)cc1 [Compound 57]	< 0.2	> 0.5
N#Cc1ccc2ncc(S(=O)(=O)c3cc(Cl)cc(Cl)c3)c(-c3ccccc3F)c2c1 [Compound 200]	> 0.5	> 0.5
N#Cc1cc(S(=O)(=O)c2cnc3cc(F)ccc3c2-c2cccc(F)c2)ccc1F [Compound 216]	< 0.2	> 0.5
O=S(=O)(c1ccc(F)cc1)c1cnc2cc(F)ccc2c1-c1cccc(F)c1 [Compound 9, 7-fluoro-3-(4-fluoro-benzenesulfonyl)-4-(3-fluoro-phenyl)-quinoline]	< 0.2	0.2 to 0.5
N#Cc1cc(S(=O)(=O)c2cnc3cc(F)ccc3c2-c2ccc(Cl)cc2)ccc1F [Compound 274]	< 0.2	> 0.5
O=S(=O)(c1cc(Cl)cc(Cl)c1)c1cnc2ccc(F)cc2c1-c1ccc(Cl)cc1 [Compound 161]	< 0.2	> 0.5
COc1cccc(-c2c(S(=O)(=O)c3ccc(F)c(F)c3)cnc3cc(F)ccc23)c1 [Compound 100]	< 0.2	> 0.5
O=S(=O)(c1ccc(Cl)cc1)c1cnc2c(Cl)cccc2c1-c1ccc(Cl)c(Cl)c1 [Compound 184]	> 0.5	> 0.5
COc1ccc(-c2c(S(=O)(=O)c3ccc(OC)cc3)cnc3c(F)cccc23)cc1 [Compound 56]	< 0.2	> 0.5
